Results from article PMC3183052, “Immunoprotectivity of HLA-A2 CTL Peptides Derived from Respiratory Syncytial Virus Fusion Protein in HLA-A2 Transgenic Mouse” (PLoS ONE, 2011).

Test system: CD8+ T lymphocytes
Assay: IFN-γ intracellular staining of CD8+ splenocytes
Assay type: cell-based, mouse
Settings: splenocytes of peptide-immunized mice stimulated with 10 µg/mL peptide for five hours; flow cytometry
Method: For IFN-γ intracellular staining, splenocytes from peptide- or vehicle-immunized mice were stimulated in vitro with the respective peptides (peptide 3, 13, 14, and 23) (10 µg/mL) for five hours, washed with 1× PBS, and stained with anti-CD8 antibody conjugated with fluorescein isothiocyanate (FITC) (BD Biosciences) for 30 minutes, followed by subsequent fixation and permeabilization following the instructions of eBioscience fixation and permeabilization kit. The splenocytes were further stained for intracellular IFN-γ using PE-conjugated anti-IFN-γ antibody (BD Biosciences) for another 30 minutes. After washing, the samples were analyzed using flow cytometry.
Figure 2 Epitope-specific CD4^+ and CD8^+ T-cell activation in peptide-immunized HLA-A*0201 transgenic mice. Splenocytes were isolated on day 17 from mice immunized twice subcutaneously with the peptides 3, 13, 14, 17, 23, or vehicle at day 0 and day 10. The splenocytes were labeled with CFSE and cultured in the presence or absence of 10 µg/mL of the respective peptides for 8 days. Proliferation of CD4^+ (A) or CD8^+ (B) lymphocytes in response to the different CD8 epitopes was analyzed by flow cytometry using anti-CD4 or CD8 antibodies conjugated with PE-Cy5. Results are presented as cell division index (CDI) as described in the Materials and Methods. […]

YMLTNSELL [peptide 14, HLA-A*0201-restricted 9-mer synthetic peptide from F protein of RSV-B1 strain]
proportion of IFN-γ+/CD8+ T lymphocytes: marginally increased
